In patent publication US20240025856A1, “1,2,3,4-TETRAHYDROQUINOLINE DERIVATIVES AS INHIBITORS OF THE YAP/TAZ-TEAD ACTIVATION FOR TREATING CANCER” (KATHOLIEKE UNIVERSITEIT LEUVEN, priority 2020, published 2024) one finds EC50 and IC50 data, which are given here for 28 compounds.

Bounds are passed on as bounds.

Holding throughout (format): cell-based
The subject of one experiment is NCI-1H226. As to the kind of experiment: Mesothelioma cell line proliferation assay, H226 (ATPlite). The following applies: Homo sapiens, NCI-H226, 144 h, 6 days with compound. On the procedure:
(§1) Mesothelioma cell lines, NCI-1H226 and NCI-1H2052 (all sourced from the ATCC cell culture collection) are plated in 96-well plates (Corning® 96 Well White Polystyrene Microplate clear flat bottom, white polystyrene (TC-Treated)), at 1500 cells/well in full medium (RPMI 1640 ATCC modification with L-glutamine, HEPES, Phenol Red, Sodium Pyruvate, High glucose, Low sodium bicarbonate and 10% fetal bovine serum). Cells are incubated overnight at 37° C. in an incubator with 5% C02. Then compounds, dissolved in DMSO, are added in dose-response. Cells are incubated with compound dilutions for another 6 days at 37° C. in an incubator with 5% C02. Cell viability is quantitated using the ATPlite kit (Perkin-Elmer) and the luminescence is read-out using an Envision instrument (Perkin-Elmer). The amount of relative light units produced using the ATPlite kit is used to calculated percent of inhibition.
(§2) The activities of some example compounds are depicted in the table below. The activity ranges A, B and C refer to EC50 values in the mesothelioma cell line proliferation assay as described as follows: “A”: EC50<1 μM; “B”: 1 μM s EC50≤10 μM and “C”: EC50≥10 μM; NT: not tested.

The test system of another experiment is NCI-1H2052. Briefly: Mesothelioma cell line proliferation assay, H2052 (ATPlite). The following applies: Homo sapiens, NCI-H2052, 144 h, 6 days with compound, read-out: H2025 (EC50). How it is done:
as §1, §2

The test system of experiment [1] is YAP/TAZ-TEAD transcription. Briefly: Reporter gene assay for measuring the inhibition of YAP/TAZ-TEAD transcription (TEAD-responsive element luciferase reporter in Hek293T cells). The following applies: Hek293T cells transiently transfected with TEAD-responsive element luciferase reporter, 24 hours incubation. The method, boiled down: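 Hek293T cells transiently transfected with a TEAD-responsive element luciferase reporter, plated onto pre-diluted compounds and incubated 24 h at 37 °C/5% CO2. Luminescence read after SteadyLite addition; % inhibition from RLU relative to vehicle (0%) and a positive control inhibitor (100%), giving IC50.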

`FC(F)(F)c1ccc(N2CC(C3CC(Br)=NO3)Cc3ccccc32)cc1` (single isomer, unassigned) [Cpd. No. 194(Dia1)-En1, 3-bromo-5-(1-(4-(trifluoromethyl)phenyl)-1,2,3,4-tetrahydroquinolin-3-yl)-4,5-dihydroisoxazole]: the EC50 in the experiment on NCI-1H226 and in the experiment on NCI-1H2052 was less than 1000 nM each time. In experiment [1], this compound gave a half-inhibitory concentration (IC50) of less than 1000 nM.
For the compound `C=CC(=O)NC1Cc2nc(N)ccc2N(c2ccc(C(F)(F)F)cc2)C1` (stereo not shown) [Cpd. No. 140, N-(6-amino-1-(4-(trifluoromethyl)phenyl)-1,2,3,4-tetrahydro-1,5-naphthyridin-3-yl)acrylamide], the EC50 in the experiment on NCI-1H226 and with NCI-1H2052 was less than 1000 nM in each case. Besides, in experiment [1] (Homo sapiens, HEK-293T, 24 h), the IC50 was less than 1000 nM.
In the case of `C=CC(=O)NCC1Cc2c(N)cccc2N(c2ccc(C(F)(F)F)cc2)C1` (stereo not shown) [Cpd. No. 153, N-((5-amino-1-(4-(trifluoromethyl)phenyl)-1,2,3,4-tetrahydroquinolin-3-yl)methyl)acrylamide], the EC50 in the experiment on NCI-1H226 and with NCI-1H2052 was less than 1000 nM throughout. Besides, the IC50 in experiment [1] (Homo sapiens, HEK-293T, 24 h) was less than 1000 nM.
In the case of `CC(=O)NCC1Cc2c(C#N)cccc2N(c2ccc(C(F)(F)F)cc2)C1` (stereo not shown) [Cpd. No. 154, N-((5-cyano-1-(4-(trifluoromethyl)phenyl)-1,2,3,4-tetrahydroquinolin-3-yl)methyl)acetamide], the EC50 in the experiment with NCI-1H226 is less than 1000 nM; in the experiment with NCI-1H2052, 1000 to 10000 nM. In experiment [1] (Homo sapiens, HEK-293T, 24 h), this compound registered an IC50 of less than 1000 nM.
Turning to `C=CC(=O)NCC1Cc2c(CC#N)cccc2N(c2ccc(C(F)(F)F)cc2)C1` (stereo not shown) [Cpd. No. 163, N-((5-(cyanomethyl)-1-(4-(trifluoromethyl)phenyl)-1,2,3,4-tetrahydroquinolin-3-yl)methyl)acrylamide], the 50% effective concentration (EC50) in the experiment on NCI-1H226 and in the experiment on NCI-1H2052 was less than 1000 nM throughout. The same compound had an IC50 in experiment [1] (Homo sapiens, HEK-293T, 24 h) of less than 1000 nM.
For the compound `C=CC(=O)NC(C)C1Cc2ccccc2N(c2ccc(C(F)(F)F)cc2)C1` (stereo not shown) [Cpd. No. 192, N-(1-(1-(4-(trifluoromethyl)phenyl)-1,2,3,4-tetrahydroquinolin-3-yl)ethyl)acrylamide], the EC50 in the experiment with NCI-1H226 and with NCI-1H2052 was less than 1000 nM in each case. The half-maximal inhibitory concentration (IC50) in experiment [1] (Homo sapiens, HEK-293T, 24 h) was less than 1000 nM.
In the case of `FC(F)(F)c1ccc(N2CC(C3CC(Br)=NO3)Cc3ccccc32)cc1` (stereo not shown) [Cpd. No. 194, 3-bromo-5-(1-(4-(trifluoromethyl)phenyl)-1,2,3,4-tetrahydroquinolin-3-yl)-4,5-dihydroisoxazole], the EC50 with NCI-1H226 was less than 1000 nM; in the experiment on NCI-1H2052 it was no less than 10000 nM. In experiment [1] (Homo sapiens, HEK-293T, 24 h), this compound registered an IC50 of less than 1000 nM.
Consider `C=CC(=O)NC1Cc2ccccc2N(c2ccc(OC(F)(F)F)cc2)C1` (stereo not shown) [compound 021, N-(1-(4-(trifluoromethoxy)phenyl)-1,2,3,4-tetrahydroquinolin-3-yl)acrylamide], for which the EC50 in the experiment with NCI-1H226 was less than 1000 nM. In addition, in experiment [1] (Homo sapiens, HEK-293T, 24 h), the IC50 is less than 1000 nM.
For the compound `C=CC(=O)NC1Cc2ccccc2N(c2ccc(S(F)(F)(F)(F)F)cc2)C1` (stereo not shown) [compound 023, N-(1-(4-(pentafluoro-λ^6-sulfaneyl)phenyl)-1,2,3,4-tetrahydroquinolin-3-yl)acrylamide], the EC50 with NCI-1H226 was less than 1000 nM. The compound also had a 50% inhibitory concentration (IC50) in experiment [1] (Homo sapiens, HEK-293T, 24 h) of less than 1000 nM.
Consider `C=CC(=O)NC1Cc2ccccc2N(c2ccc(C(F)(F)F)c(F)c2)C1` (stereo not shown) [compound 028, N-(1-(3-fluoro-4-(trifluoromethyl)phenyl)-1,2,3,4-tetrahydroquinolin-3-yl)acrylamide], for which the EC50 in the experiment on NCI-1H226 and with NCI-1H2052 was less than 1000 nM throughout. The IC50 in experiment [1] (Homo sapiens, HEK-293T, 24 h) is less than 1000 nM.
Regarding `C=CC(=O)NC1Cc2ccccc2N(c2ccc(C(F)(F)F)cc2F)C1` (stereo not shown) [compound 029, N-(1-(2-fluoro-4-(trifluoromethyl)phenyl)-1,2,3,4-tetrahydroquinolin-3-yl)acrylamide], the EC50 with NCI-1H226 and with NCI-1H2052 was less than 1000 nM in each case. The compound further returned an IC50 in experiment [1] (Homo sapiens, HEK-293T, 24 h) of less than 1000 nM.
For the compound `C=CC(=O)NC1Cc2ccccc2N(c2ccc(SC(F)(F)F)cc2)C1` (stereo not shown) [compound 030, N-(1-(4-((trifluoromethyl)thio)phenyl)-1,2,3,4-tetrahydroquinolin-3-yl)acrylamide], the EC50 with NCI-1H226 is less than 1000 nM. The same compound came in with an IC50 in experiment [1] (Homo sapiens, HEK-293T, 24 h) of less than 1000 nM.
Regarding `C=C(F)C(=O)NC1Cc2ccccc2N(c2ccc(C(F)(F)F)cc2)C1` (stereo not shown) [compound 039, 2-fluoro-N-(1-(4-(trifluoromethyl)phenyl)-1,2,3,4-tetrahydroquinolin-3-yl)acrylamide], the EC50 with NCI-1H226 and in the experiment on NCI-1H2052 was less than 1000 nM throughout. Further, the IC50 in experiment [1] (Homo sapiens, HEK-293T, 24 h) was less than 1000 nM.
In the case of `C=CC(=O)NC1Cc2c(Cc3cccnc3)cccc2N(c2ccc(C(F)(F)F)cc2)C1` (stereo not shown) [compound 059, N-(5-(pyridin-3-yl-methyl)-1-(4-(trifluoromethyl)phenyl)-1,2,3,4-tetrahydroquinolin-3-yl)acrylamide], the EC50 in the experiment with NCI-1H226 was less than 1000 nM. For the same compound, in experiment [1] (Homo sapiens, HEK-293T, 24 h), the IC50 was less than 1000 nM.
In the case of `C=CC(=O)NC1Cc2c(F)cccc2N(c2ccc(C(F)(F)F)cc2)C1` (stereo not shown) [compound 060, N-(5-fluoro-1-(4-(trifluoromethyl)phenyl)-1,2,3,4-tetrahydroquinolin-3-yl)acrylamide], the EC50 in the experiment with NCI-1H226 and in the experiment on NCI-1H2052 was less than 1000 nM in each case. The compound further gave an IC50 in experiment [1] (Homo sapiens, HEK-293T, 24 h) of less than 1000 nM.
On to `C=CC(=O)NC1Cc2c(C)cccc2N(c2ccc(C(F)(F)F)cc2)C1` (stereo not shown) [compound 064, N-(5-methyl-1-(4-(trifluoromethyl)phenyl)-1,2,3,4-tetrahydroquinolin-3-yl)acrylamide], for which the 50% effective concentration (EC50) with NCI-1H226 is less than 1000 nM. For the same compound, the IC50 in experiment [1] (Homo sapiens, HEK-293T, 24 h) is less than 1000 nM.
For the compound `C=CC(=O)NC1Cc2c(OC)cccc2N(c2ccc(C(F)(F)F)cc2)C1` (stereo not shown) [compound 073, N-(5-methoxy-1-(4-(trifluoromethyl)phenyl)-1,2,3,4-tetrahydroquinolin-3-yl)acrylamide], the EC50 in the experiment with NCI-1H226 was less than 1000 nM. This compound also showed a half-inhibitory concentration (IC50) in experiment [1] (Homo sapiens, HEK-293T, 24 h) of less than 1000 nM.
As to `C=CC(=O)NCC1Cc2ccccc2N(c2ccc(C(F)(F)F)cc2F)C1` (stereo not shown) [compound 113, N-((1-(2-fluoro-4-(trifluoromethyl)phenyl)-1,2,3,4-tetrahydroquinolin-3-yl)methyl)acrylamide], in the experiment on NCI-1H226, the EC50 was less than 1000 nM. Moreover, the IC50 in experiment [1] (Homo sapiens, HEK-293T, 24 h) was less than 1000 nM.
As to `C=CC(=O)NCC1Cc2c(C)cccc2N(c2ccc(C(F)(F)F)cc2)C1` (stereo not shown) [compound 128, N-((5-methyl-1-(4-(trifluoromethyl)phenyl)-1,2,3,4-tetrahydroquinolin-3-yl)methyl)acrylamide], the half-maximal effective concentration (EC50) in the experiment on NCI-1H226 was less than 1000 nM. In experiment [1] (Homo sapiens, HEK-293T, 24 h), this compound had an IC50 of less than 1000 nM.
With `C=CC(=O)N(C)CC1Cc2ccccc2N(c2ccc(C(F)(F)F)cc2)C1` (stereo not shown) [compound 134, N-methyl-N-((1-(4-(trifluoromethyl)phenyl)-1,2,3,4-tetrahydroquinolin-3-yl)methyl)acrylamide], the concentration for a half-maximal effect (EC50) with NCI-1H226 was less than 1000 nM. In experiment [1] (Homo sapiens, HEK-293T, 24 h), this compound came in with an IC50 of less than 1000 nM.
On to `C=CC(=O)NC1Cc2ccccc2N(Cc2ccc(C(F)(F)F)cc2)C1` (stereo not shown) [compound 181, N-(1-(4-(trifluoromethyl)benzyl)-1,2,3,4-tetrahydroquinolin-3-yl)acrylamide], for which the EC50 in the experiment on NCI-1H226 is less than 1000 nM. The same compound displayed an IC50 in experiment [1] (Homo sapiens, HEK-293T, 24 h) of less than 1000 nM.
With `C=CC(=O)NCC1Cc2ccccc2N(Cc2ccc(C(F)(F)F)cc2)C1` (stereo not shown) [compound 184, N-((1-(4-(trifluoromethyl)benzyl)-1,2,3,4-tetrahydroquinolin-3-yl)methyl)acrylamide], in the experiment with NCI-1H226, the EC50 was less than 1000 nM. Besides, the IC50 in experiment [1] (Homo sapiens, HEK-293T, 24 h) was less than 1000 nM.
In experiment [1] (Homo sapiens, HEK-293T, 24 h), `C=CC(=O)NC1Cc2ccccc2N(S(=O)(=O)c2cccc(C(F)(F)F)c2)C1` (stereo not shown) [compound 186, N-(1-((3-(trifluoromethyl)phenyl)sulfonyl)-1,2,3,4-tetrahydroquinolin-3-yl)acrylamide] registered an IC50 of less than 1000 nM.
On to `C=CC(=O)NC1Cc2ccccc2N(S(=O)(=O)c2ccc(C(F)(F)F)cc2)C1` (stereo not shown) [compound 187, N-(1-((4-(trifluoromethyl)phenyl)sulfonyl)-1,2,3,4-tetrahydroquinolin-3-yl)acrylamide], for which the IC50 in experiment [1] (Homo sapiens, HEK-293T, 24 h) was less than 1000 nM.
As for `CCC(=O)NCC1CCc2ccccc2N1c1ccc(C(F)(F)F)cc1` (stereo not shown) [compound 188, N-((1-(4-(trifluoromethyl)phenyl)-1,2,3,4-tetrahydroquinolin-2-yl)methyl)propionamide], the IC50 in experiment [1] (Homo sapiens, HEK-293T, 24 h) was greater than 20000 nM.
In experiment [1] (Homo sapiens, HEK-293T, 24 h), `C=CC(=O)NCC1CCc2ccccc2N1Cc1ccc(C(F)(F)F)cc1` (stereo not shown) [compound 189, N-((1-(4-(trifluoromethyl)benzyl)-1,2,3,4-tetrahydroquinolin-2-yl)methyl)acrylamide] came in with an IC50 of less than 1000 nM.
The compound `C=CC(=O)NCC1CCc2ccccc2N1Cc1cccc(C(F)(F)F)c1` (stereo not shown) [compound 190, N-((1-(3-(trifluoromethyl)benzyl)-1,2,3,4-tetrahydroquinolin-2-yl)methyl)acrylamide] had an IC50 in experiment [1] (Homo sapiens, HEK-293T, 24 h) of less than 1000 nM.
Turning to `C=CC(=O)NC1Cc2ccccc2N(Cc2ccc(Br)cc2)C1` (stereo not shown) [compound 191, N-(1-(4-bromobenzyl)-1,2,3,4-tetrahydroquinolin-3-yl)acrylamide], in experiment [1] (Homo sapiens, HEK-293T, 24 h), the IC50 is less than 1000 nM.
